Experimental data published in ChEMBL document CHEMBL1128065, “Stereochemical preferences and requirement for the 3-hydroxyl group in novel anticonvulsant 4-fluorobenzoylamino benzopyrans” (1995).

Experiments:
Mus musculus = species on record: Mus musculus; assay: Effect on percent increase in seizure threshold was evaluated by maximal electroshock threshold (MEST) test in mouse; type: functional
Rattus norvegicus = assay: Tested for blood pressure fall on i.v. administration at a dose of 10 mg/kg infused over 30 minutes in pentobarbitone-anaesthetized hooded lister rats; type: functional; conditions: route intravenous

Row | Structure (SMILES) | Increase (Mus musculus) | BP (Rattus norvegicus)
1 | CC1(C)Oc2ccc(C#N)cc2[C@H](NC(=O)c2ccc(F)cc2)[C@@H]1O | 28% | 5%
2 | CC1(C)Oc2ccc(C#N)cc2[C@@H](NC(=O)c2ccc(F)cc2)[C@@H]1O | 17% | 
3 | CC1(C)Oc2ccc(C#N)cc2[C@H](NC(=O)c2ccc(F)cc2)[C@H]1O | 41% | 
4 | CC1(C)Oc2ccc(C#N)cc2[C@@H](NC(=O)c2ccc(F)cc2)[C@H]1O | 0% | 36%
5 | CC1(C)CC(NC(=O)c2ccc(F)cc2)c2cc(C#N)ccc2O1 (configuration not stated) | 5% | 
